Reference: US20160184274A1, “Methods for inhibiting mesenchymal phenotype after epithelial-to-mesenchymal transition” (Fibrostatin, S.L., priority 2014, published 2016)

Tested on: mesenchymal A549 spheroids
Experiment: Collagen network in mesenchymal spheroids, confocal microscopy
Assay type: cell-based, Human
Experimental: FIG. 7. T12 disrupts collagen IV network and reduces A549 mesenchymal spheroids viability. A549 spheroids were subjected to EMT induction with TGF-β and TNF-α during 4 days, and treated with T12 (10 μM) or maintained untreated (Cont) for the last 2 days. In A, spheroids were analyzed by immunofluorescence confocal microscopy with anti-α1α2 (IV) antibodies (COL4, white) and DAPI to visualize the cell nuclei (grey). In B, the culture media of the spheroids in A were used for assessing cell death by measuring LDH activity. […] Represented are Means (±SEM).
Three-dimensional spheroid cultures of A549 cells were obtained using a hanging droplet method (Kelm et al., 2003. Biotechnol. Bioeng. 83: 173-180.; Kumar et al., 2013. PLoS One. 8: e68597). Briefly, cells were grown to approximately 80% confluence on adherent tissue-culture flasks. Then cells were trypsinized, dispersed in DMEM/10% FBS, and counted using an automated cell counter (MOXI® Z, Orflo). The cell suspension was diluted to a 10^6 cells/mL-concentration, and 25 μl of the cell suspension were pipetted onto the underside of a sterile 10-cm tissue culture plate lid. Each lid was loaded with approximately 55 droplets. After loading, the lid was placed onto a tissue culture plate containing 6 mL of sterile PBS (phosphate-buffered saline) and incubated for 48 hours to facilitate spheroid formation. […]

For `COc1ccc(-c2ccc(-c3cccc(C)c3)c(C)c2)c(CCC(=O)O)c1` [T12, 3-[4″-methoxy-3,2′-dimethyl-(1,1′;4′,1″)terphenyl-2″-yl] propionic acid], the “collagen IV network formation” value (T12 10 μM for the last 2 days of 4-day EMT induction with TGF-β and TNF-α, FIG. 7A) was “inhibited collagen IV network formation” and the “fibrillary collagen I” value (data not shown) was “sharply reduced fibrillary collagen I”.
